# Key:
# AXL = target: T1, AXL (Homo sapiens, UniProt P30530); assay: TR-FRET kinase activity assay, AXL; assay type: biochemical; details: ATP at Km, 60 minutes
# T1 sequence (P30530 26-894): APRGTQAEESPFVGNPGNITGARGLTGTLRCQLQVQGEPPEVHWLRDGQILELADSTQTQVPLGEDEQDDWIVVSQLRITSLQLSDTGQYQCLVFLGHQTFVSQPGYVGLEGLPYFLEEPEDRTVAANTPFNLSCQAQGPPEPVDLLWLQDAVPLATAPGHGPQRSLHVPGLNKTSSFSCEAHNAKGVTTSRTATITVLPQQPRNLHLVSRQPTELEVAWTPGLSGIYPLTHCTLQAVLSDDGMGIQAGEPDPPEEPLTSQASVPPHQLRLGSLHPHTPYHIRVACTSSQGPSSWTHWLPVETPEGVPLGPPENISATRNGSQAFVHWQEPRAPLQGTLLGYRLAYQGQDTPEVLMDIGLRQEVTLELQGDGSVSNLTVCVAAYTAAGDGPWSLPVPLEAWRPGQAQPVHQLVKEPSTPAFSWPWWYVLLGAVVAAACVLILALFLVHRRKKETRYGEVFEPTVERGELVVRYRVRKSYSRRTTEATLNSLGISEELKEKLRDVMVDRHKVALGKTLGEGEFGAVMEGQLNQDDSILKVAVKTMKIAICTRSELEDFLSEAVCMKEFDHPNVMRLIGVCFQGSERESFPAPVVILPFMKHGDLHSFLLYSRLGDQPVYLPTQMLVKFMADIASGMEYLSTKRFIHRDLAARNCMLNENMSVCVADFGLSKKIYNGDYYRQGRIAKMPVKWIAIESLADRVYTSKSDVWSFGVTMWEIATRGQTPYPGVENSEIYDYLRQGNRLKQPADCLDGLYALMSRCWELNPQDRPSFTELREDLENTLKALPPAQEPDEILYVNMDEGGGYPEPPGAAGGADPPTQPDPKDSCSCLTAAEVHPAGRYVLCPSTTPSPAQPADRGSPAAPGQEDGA
# Method in brief: (§1)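 IC50 came from TR-FRET signal after 30 min dark development with a Europium-labeled phospho-specific antibody. This followed a 60 min RT reaction, stopped with EDTA, started with ATP at Km per enzyme. Peptide substrate, enzyme and compound were premixed in HEPES pH 7.5 buffer with MgCl2, EGTA, Brij 35 and DTT.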
# TYRO3 = target: T2, TYRO3 (Homo sapiens, UniProt Q06418); assay: TR-FRET kinase activity assay, TYRO3; assay type: biochemical; details: ATP at Km, 60 minutes
# T2 sequence (Q06418 41-890): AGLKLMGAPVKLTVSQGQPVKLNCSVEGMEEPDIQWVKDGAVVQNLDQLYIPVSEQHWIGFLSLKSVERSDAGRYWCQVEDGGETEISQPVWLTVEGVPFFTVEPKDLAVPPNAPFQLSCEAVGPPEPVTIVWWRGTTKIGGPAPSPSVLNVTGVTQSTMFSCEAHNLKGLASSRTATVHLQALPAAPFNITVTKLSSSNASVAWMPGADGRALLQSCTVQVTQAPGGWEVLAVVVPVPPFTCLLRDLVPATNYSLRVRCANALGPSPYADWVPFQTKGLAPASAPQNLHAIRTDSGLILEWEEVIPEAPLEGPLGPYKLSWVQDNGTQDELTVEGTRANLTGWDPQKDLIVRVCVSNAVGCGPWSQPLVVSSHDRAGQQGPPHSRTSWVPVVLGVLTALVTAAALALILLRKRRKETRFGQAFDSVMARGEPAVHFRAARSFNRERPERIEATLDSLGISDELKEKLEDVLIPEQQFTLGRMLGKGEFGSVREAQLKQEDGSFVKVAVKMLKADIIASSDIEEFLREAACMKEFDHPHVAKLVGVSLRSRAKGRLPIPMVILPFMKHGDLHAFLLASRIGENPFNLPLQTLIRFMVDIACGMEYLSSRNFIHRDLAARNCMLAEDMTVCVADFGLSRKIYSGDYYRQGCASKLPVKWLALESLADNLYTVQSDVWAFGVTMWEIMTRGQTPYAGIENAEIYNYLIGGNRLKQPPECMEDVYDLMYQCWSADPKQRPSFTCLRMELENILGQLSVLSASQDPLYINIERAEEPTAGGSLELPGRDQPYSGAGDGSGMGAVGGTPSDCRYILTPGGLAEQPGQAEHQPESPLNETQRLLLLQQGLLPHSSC
# Method in brief: as §1
Structure (SMILES),IC50 (AXL),IC50 (TYRO3)
COCCN1[C@@H]2CC[C@H]1C[C@H](Oc1ncc([C@H]3CC[C@H](O)CC3)c3nc(N[C@@H](C)CC(F)(F)F)ncc13)C2 [Compound 432],≤ 100 nM,≤ 100 nM
CCCC(C)Nc1ncc2c(OC3CCN(CCOC)CC3)ncc([C@H]3CC[C@H](O)CC3)c2n1 (some centres unmarked) [Compound 173],100 to 1000 nM,≤ 100 nM
COC[C@@H](C)Nc1ncc2c(OC3CCOCC3)ncc([C@H]3CC[C@H](O)CC3)c2n1 [Compound 145],1000 to 10000 nM,≤ 100 nM
CC1(C)CC(Nc2ncc3c(OC4CCOCC4)ncc([C@H]4CC[C@H](O)CC4)c3n2)C1 [Compound 144],100 to 1000 nM,100 to 1000 nM
CCC(C)Nc1ncc2c(OC3CCOCC3)ncc([C@H]3CC[C@H](O)CC3)c2n1 (some centres unmarked) [Compound 140],100 to 1000 nM,≤ 100 nM
CCCC(C)Nc1ncc2c(OC3CCOCC3)ncc([C@H]3CC[C@H](N(C)C)CC3)c2n1 (some centres unmarked) [Compound 185],100 to 1000 nM,> 10000 nM
CCCC(C)Nc1ncc2c(=O)n(CCN3CCOCC3)cc([C@H]3CC[C@H](O)CC3)c2n1 (some centres unmarked) [Compound 177],1000 to 10000 nM,≤ 100 nM
C[C@H](Nc1ncc2c(OC3CCNCC3)ncc([C@H]3CC[C@H](O)CC3)c2n1)c1ccccc1 [Compound 189],1000 to 10000 nM,> 10000 nM
CCCC(C)Nc1ncc2c(N3CC[C@H](N(C)C)C3)ncc([C@H]3CC[C@H](O)CC3)c2n1 (some centres unmarked) [Compound 159],1000 to 10000 nM,≤ 100 nM
CCCC(C)Nc1ncc2c(N3CC[C@@H](N(C)C)C3)ncc([C@H]3CC[C@H](O)CC3)c2n1 (some centres unmarked) [Compound 156],100 to 1000 nM,≤ 100 nM
CC(=O)N[C@H]1C[C@@H](Oc2ncc([C@H]3CC[C@H](O)CC3)c3nc(N[C@@H](C)CC(F)(F)F)ncc23)C1 [Compound 433],≤ 100 nM,≤ 100 nM
CCCC(C)Nc1ncc2c(=O)n(CC3CCN(C)CC3)cc([C@H]3CC[C@H](O)CC3)c2n1 (some centres unmarked) [Compound 193],100 to 1000 nM,> 10000 nM
COC(=O)N[C@H]1C[C@@H](Oc2ncc([C@H]3CC[C@H](O)CC3)c3nc(N[C@@H](C)CC(F)(F)F)ncc23)C1 [Compound 435],≤ 100 nM,≤ 100 nM
C[C@@H](CC(F)(F)F)Nc1ncc2c(O[C@@H]3C[C@H]4CC[C@@H](C3)N4C3COC3)ncc([C@H]3CC[C@H](O)CC3)c2n1 [Compound 437],≤ 100 nM,≤ 100 nM
CCCC(C)Nc1ncc2c(OC3CCNCC3)ncc([C@H]3CC[C@H](O)CC3)c2n1 (some centres unmarked) [Compound 166],100 to 1000 nM,≤ 100 nM
CCCC(C)Nc1ncc2c(N3CCC[C@H](N(C)C)C3)ncc([C@H]3CC[C@H](O)CC3)c2n1 (some centres unmarked) [Compound 180],1000 to 10000 nM,≤ 100 nM
CCCC(C)Nc1ncc2c(NC3CCNCC3)ncc([C@H]3CC[C@H](O)CC3)c2n1 (some centres unmarked) [Compound 158],≤ 100 nM,≤ 100 nM
CCCC(C)Nc1ncc2c(N3CCC[C@@H](N(C)C)C3)ncc([C@H]3CC[C@H](O)CC3)c2n1 (some centres unmarked) [Compound 188],1000 to 10000 nM,> 10000 nM
CCCC(C)Nc1ncc2c(NC3CCN(C)CC3)ncc([C@H]3CC[C@H](O)CC3)c2n1 (some centres unmarked) [Compound 154],≤ 100 nM,≤ 100 nM
CCCC(C)Nc1ncc2c(O[C@H]3C[C@@H](O)C3)ncc([C@H]3CC[C@H](O)CC3)c2n1 (some centres unmarked) [Compound 176],100 to 1000 nM,≤ 100 nM
CC(C)C(C)Nc1ncc2c(OC3CCNCC3)ncc([C@H]3CC[C@H](O)CC3)c2n1 (some centres unmarked) [Compound 178],100 to 1000 nM,≤ 100 nM
CCCC(C)Nc1ncc2c(OC3CCN(CCC(=O)N(C)C)CC3)ncc([C@H]3CC[C@H](O)CC3)c2n1 (some centres unmarked) [Compound 170],100 to 1000 nM,≤ 100 nM

Structure (SMILES),IC50 (AXL),IC50 (TYRO3)
CCCCNc1ncc2c(OC3CCN(C)CC3)ncc([C@H]3CC[C@H](O)CC3)c2n1 [Compound 131],≤ 100 nM,≤ 100 nM
CCCC(C)Nc1ncc2c(OCCN(C)C)ncc([C@H]3CC[C@H](O)CC3)c2n1 (some centres unmarked) [Compound 191],1000 to 10000 nM,> 10000 nM
CC(=O)N1[C@@H]2CC[C@H]1C[C@H](Oc1ncc([C@H]3CC[C@H](O)CC3)c3nc(N[C@@H](C)CC(F)(F)F)ncc13)C2 [Compound 436],≤ 100 nM,≤ 100 nM
CCC[C@H](C)Nc1ncc2c(OC3CCN(C)CC3)ncc([C@H]3CC[C@H](O)CC3)c2n1 [Compound 190],100 to 1000 nM,100 to 1000 nM
CCCC(C)Nc1ncc2c(OC3CCN(CC(=O)N(C)C)CC3)ncc([C@H]3CC[C@H](O)CC3)c2n1 (some centres unmarked) [Compound 172],100 to 1000 nM,≤ 100 nM
O[C@H]1CC[C@H](c2cnc(OC3CCNCC3)c3cnc(N[C@H]4CCOC4)nc32)CC1 [Compound 136],100 to 1000 nM,≤ 100 nM
CCCC(C)Nc1ncc2c(O[C@@H]3C[C@H]4CC[C@@H](C3)O4)ncc([C@H]3CC[C@H](O)CC3)c2n1 (some centres unmarked) [Compound 174],100 to 1000 nM,100 to 1000 nM
CCCC(C)Nc1ncc2c(N3CCC(NC)CC3)ncc([C@H]3CC[C@H](O)CC3)c2n1 (some centres unmarked) [Compound 155],100 to 1000 nM,≤ 100 nM
CCCCNc1ncc2c(OC3CCNCC3)ncc([C@H]3CC[C@H](O)CC3)c2n1 [Compound 129],≤ 100 nM,≤ 100 nM
CCCC(C)Nc1ncc2c(OC3CCC(OC)CC3)ncc([C@H]3CC[C@H](O)CC3)c2n1 (some centres unmarked) [Compound 147],100 to 1000 nM,≤ 100 nM
CCCC(C)Nc1ncc2c(O[C@H]3CC[C@H](O)CC3)ncc([C@H]3CC[C@H](O)CC3)c2n1 (some centres unmarked) [Compound 139],100 to 1000 nM,≤ 100 nM
CC1CC(Nc2ncc3c(OC4CCNCC4)ncc([C@H]4CC[C@@H](O)CC4)c3n2)C1 (some centres unmarked) [Compound 168],100 to 1000 nM,≤ 100 nM
CCCC(C)Nc1ncc2c(OC[C@H]3CC[C@H](O)CC3)ncc([C@H]3CC[C@H](O)CC3)c2n1 (some centres unmarked) [Compound 160],100 to 1000 nM,≤ 100 nM
CCCC(C)Nc1ncc2c(N3CC(N(C)C)C3)ncc([C@H]3CC[C@H](O)CC3)c2n1 (some centres unmarked) [Compound 181],1000 to 10000 nM,> 10000 nM
CCCC(C)Nc1ncc2c(O[C@H]3C[C@H]4CC[C@@H](C3)O4)ncc([C@H]3CC[C@H](O)CC3)c2n1 (some centres unmarked) [Compound 175],100 to 1000 nM,100 to 1000 nM
CCCCNc1ncc2c(=O)n(-c3ccc(CN4CCOCC4)cc3)cc([C@H]3CC[C@H](O)CC3)c2n1 [Compound 101],100 to 1000 nM,100 to 1000 nM
COC[C@H](C)Nc1ncc2c(O[C@H]3C[C@@H](O)C3(C)C)ncc([C@H]3CC[C@H](O)CC3)c2n1 [Compound 431],1000 to 10000 nM,≤ 100 nM
CCC[C@H](C)Nc1ncc2c(OC3CCNCC3)ncc([C@H]3CC[C@H](O)CC3)c2n1 [Compound 171],≤ 100 nM,≤ 100 nM
CC1CC(Nc2ncc3c(OC4CCNCC4)ncc([C@H]4CC[C@H](O)CC4)c3n2)C1 (some centres unmarked) [Compound 167],≤ 100 nM,≤ 100 nM
CCCC(C)Nc1ncc2c(=O)n(C3CCN(C(=O)CN(C)C)CC3)cc([C@H]3CC[C@H](O)CC3)c2n1 (some centres unmarked) [Compound 192],1000 to 10000 nM,> 10000 nM
CC(C)Nc1ncc2c(OC3CCNCC3)ncc([C@H]3CC[C@H](O)CC3)c2n1 [Compound 135],≤ 100 nM,≤ 100 nM

# Source: patent US20200291018A1, “TAM KINASE INHIBITORS” (SYROS PHARMACEUTICALS, INC., priority 2017, published 2020)
